Earlier results, collected in patent US20240398831A1, “COMPOSITIONS COMPRISING SMALL MOLECULE REGULATORS OF TUMOR IMMUNITY AND METHODS OF USING SAME” (Duke University, priority 2021, published 2024).

System: melanoma
Settings: human, in vivo; cited from earlier work

## CC/C(=C(\c1ccccc1)c1ccc(OCCN(C)C)cc1)c1ccccc1 [tamoxifen]
  results of studies in melanoma patients: equivocal
